For 28 compounds, IC50 results are on record in ChEMBL document CHEMBL3351901 (Bioorg Med Chem, 2014).

SMILES strings stand for the structures. Positions count from the first letter of the chain named.

Test [1] concerns the target T1, Aldo-keto reductase family 1 member C3 (Homo sapiens, UniProt P42330).
T1 sequence (P42330 whole entry): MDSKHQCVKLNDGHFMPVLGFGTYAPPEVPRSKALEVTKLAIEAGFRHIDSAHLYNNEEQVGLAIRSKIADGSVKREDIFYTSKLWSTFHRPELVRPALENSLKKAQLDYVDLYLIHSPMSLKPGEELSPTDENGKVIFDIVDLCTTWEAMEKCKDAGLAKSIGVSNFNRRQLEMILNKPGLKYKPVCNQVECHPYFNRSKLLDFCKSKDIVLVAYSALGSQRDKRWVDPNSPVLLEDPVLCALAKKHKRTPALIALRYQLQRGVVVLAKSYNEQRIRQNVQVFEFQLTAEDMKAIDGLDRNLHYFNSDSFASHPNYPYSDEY
Description: Inhibition of AKR1C3 (unknown origin) assessed as dehydrogenase activity of enzyme by NADPH fluorescence assay

Test [2] deals with T2, Aldo-keto reductase family 1 member C1 (Homo sapiens, UniProt Q04828).
T2 sequence (Q04828 whole entry): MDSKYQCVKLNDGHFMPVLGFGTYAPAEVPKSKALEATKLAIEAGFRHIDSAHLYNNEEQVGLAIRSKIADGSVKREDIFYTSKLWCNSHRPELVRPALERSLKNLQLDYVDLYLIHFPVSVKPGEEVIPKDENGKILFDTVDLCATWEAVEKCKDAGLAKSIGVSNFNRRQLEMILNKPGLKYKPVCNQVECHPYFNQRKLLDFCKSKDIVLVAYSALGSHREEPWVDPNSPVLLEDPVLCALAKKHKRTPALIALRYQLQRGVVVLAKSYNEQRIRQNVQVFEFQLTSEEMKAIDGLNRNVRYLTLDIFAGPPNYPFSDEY
In words: Inhibition of AKR1C1 (unknown origin) assessed as dehydrogenase activity of enzyme by NADPH fluorescence assay.

The target in test [3] is T3, Aldo-keto reductase family 1 member C2 (Homo sapiens, UniProt P52895).
T3 sequence (P52895 whole entry): T2 sequence (Q04828 whole entry) with T38V, R47H, L54V, C87S, V151M, R170H, Q172L
In words: Inhibition of AKR1C2 (unknown origin) assessed as dehydrogenase activity of enzyme by NADPH fluorescence assay.

Test [4] addresses T4, Aldo-keto reductase family 1 member C4 (Homo sapiens, UniProt P17516).
T4 sequence (P17516 whole entry): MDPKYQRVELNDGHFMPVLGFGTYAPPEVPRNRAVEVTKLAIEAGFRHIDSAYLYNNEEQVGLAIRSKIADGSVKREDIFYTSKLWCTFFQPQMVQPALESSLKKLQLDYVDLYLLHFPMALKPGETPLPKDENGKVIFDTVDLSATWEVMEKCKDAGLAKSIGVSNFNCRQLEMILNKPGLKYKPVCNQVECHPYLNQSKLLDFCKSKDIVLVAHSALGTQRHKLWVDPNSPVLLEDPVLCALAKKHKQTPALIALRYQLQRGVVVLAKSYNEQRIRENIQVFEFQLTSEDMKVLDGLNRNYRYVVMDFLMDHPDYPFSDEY
Description: Inhibition of AKR1C4 (unknown origin) assessed as dehydrogenase activity of enzyme by NADPH fluorescence assay.

Test [5] has as its target T1, Aldo-keto reductase family 1 member C3. Description: Inhibition of AKR1C3-mediated androsterone metabolism in human A549 cells assessed as 5alpha-androstane-3alpha, 17beta-diol after 24 hrs by LC/MS analysis. It counts as cell-based.

Consider `O=C(O)/C=C/c1ccc(OC(=O)CCc2ccccc2)c(OCc2ccc(F)cc2)c1`, for which half-maximal inhibition in test [1] (IC50) required 220 nM.
On the same count and under the same terms, next, `COc1cc(/C=C/C(=O)O)ccc1OC(=O)CCc1ccccc1`: 4500 nM; `CCOc1cc(/C=C/C(=O)O)ccc1OC(=O)CCc1ccccc1`: 970 nM.
The same measure, in the same setting: next, `CCCOc1cc(/C=C/C(=O)O)ccc1OC(=O)CCc1ccccc1`: 2200 nM; `CC(C)Oc1cc(/C=C/C(=O)O)ccc1OC(=O)CCc1ccccc1`: 3100 nM.
On the same count and under the same terms, next, `CCCCOc1cc(/C=C/C(=O)O)ccc1OC(=O)CCc1ccccc1`: 420 nM; `CC(C)COc1cc(/C=C/C(=O)O)ccc1OC(=O)CCc1ccccc1`: 560 nM; `C/C=C/COc1cc(/C=C/C(=O)O)ccc1OC(=O)CCc1ccccc1`: 1100 nM.
For the compound `C=C(C)COc1cc(/C=C/C(=O)O)ccc1OC(=O)CCc1ccccc1`, the IC50 (as a rule, the point on the concentration scale where inhibition reaches its midpoint) in test [1] was 850 nM.
The same measure, in the same setting: under `O=C(O)/C=C/c1ccc(OC(=O)CCc2ccccc2)c(OCc2ccccc2)c1` stands 390 nM; under `Cc1ccc(COc2cc(/C=C/C(=O)O)ccc2OC(=O)CCc2ccccc2)cc1`, 110 nM.
The same measure, in the same setting: under `O=C(O)/C=C/c1ccc(OC(=O)CCc2ccccc2)c(OCc2ccccc2F)c1` stands 320 nM.
Still for that read-out and setting: under `O=C(O)/C=C/c1ccc(OC(=O)CCc2ccccc2)c(OCc2cccc(F)c2)c1` stands 110 nM.
On to `O=C(O)/C=C/c1ccc(OC(=O)CCc2ccccc2)c(OCc2cc(F)cc(F)c2)c1`, for which the half-inhibitory concentration (IC50) in test [1] turned out to be 360 nM.
The same measure, in the same setting: next, `O=C(O)/C=C/c1ccc(OC(=O)CCc2ccccc2)c(OCc2ccc(Cl)cc2)c1`: 890 nM.
The same measure, in the same setting: next, `O=C(O)/C=C/c1ccc(OC(=O)CCc2ccccc2)c(OCCc2ccccc2)c1`: 570 nM; `Cc1ccc(COc2cc(/C=C/C(=O)O)ccc2OC(=O)CCc2cccc(F)c2)cc1`: 160 nM; `Cc1ccc(COc2cc(/C=C/C(=O)O)ccc2OC(=O)CCc2ccc(F)cc2)cc1`: 470 nM.
Same read-out and setting: under `Cc1ccc(COc2cc(/C=C/C(=O)O)ccc2OC(=O)CCc2c(F)cc(F)cc2F)cc1` stands 540 nM; under `Cc1ccc(COc2cc(/C=C/C(=O)O)ccc2OC(=O)CCc2ccc(O)cc2)cc1`, 770 nM; under `Cc1ccc(COc2cc(/C=C/C(=O)O)ccc2OC(=O)CCc2cccc(O)c2)cc1`, 910 nM.
Take `O=C(O)/C=C/c1ccc(OC(=O)CCc2cccc(F)c2)c(OCc2cccc(F)c2)c1`: in test [1], the IC50 was determined as 400 nM.
As to `O=C(O)/C=C/c1ccc(OC(=O)CCc2ccc(F)cc2)c(OCc2cccc(F)c2)c1`, it took 540 nM to reach half-maximal inhibition in test [1] (IC50).
`O=C(O)/C=C/c1ccc(OC(=O)CCc2c(F)cc(F)cc2F)c(OCc2cccc(F)c2)c1` showed an IC50 in test [1] of 580 nM.
The same measure, in the same setting: under `O=C(O)/C=C/c1ccc(OC(=O)CCc2cccc(O)c2)c(OCc2cccc(F)c2)c1` stands 800 nM; under `O=C(O)/C=C/c1ccc(OC(=O)CCc2ccc(O)cc2)c(OCc2cccc(F)c2)c1`, 840 nM.
As to `O=C(O)/C=C/c1ccc(OC(=O)CCc2ccccc2)c(OCc2cccc(O)c2)c1`, the half-maximal inhibitory concentration (IC50) in test [2] is 81000 nM; in test [3], over 100000 nM; in test [4], 20000 nM; in test [5], 8000 nM; in test [1] it was 20 nM.
`COc1cccc(COc2cc(/C=C/C(=O)O)ccc2OC(=O)CCc2ccccc2)c1`: the IC50 was over 100000 nM in test [2], over 100000 nM in test [3], over 100000 nM in test [4] and 960 nM in test [1].
